{
  "source": "patent US20150031056A1",
  "about": "“DEVELOPMENT OF SPECIFIC IMMUNOASSAY CRITICAL REAGENTS FOR PHARMACOKINETIC ASSESSMENTS OF PEPTIDE POLYMERS IN PRECLINICAL AND CLINICAL MATRICES” (priority 2011, published 2015)",
  "assay": "Pilot PK study in Sprague Dawley rats (serum Copaxone by ELISA)",
  "type": "in vivo",
  "settings": "Copaxone 20 mg/kg B.wt",
  "experimental": "A series of serum samples, each containing Copaxone spiked at known concentration and forming a set of calibrator standards to generate a calibration curve to quantify Copaxone in the serum samples of the given species was made in the serum with Copaxone at levels […], 30000 ng/ml, 4000 ng/ml, 2000 ng/ml, 1000 ng/ml, 500 ng/ml, 250 ng/ml, 125 ng/ml, 62.5 ng/ml, 31.3 ng/ml, 7.8 ng/ml and 3.9 ng/ml in neat serum.\nELISA plate is precoated with Polyclonal Rabbit Anti Copaxone antibodies and the appropriately diluted serum samples constituting the calibrator standards and samples for analysis were incubated for binding to the coated Anti Copaxone antibodies and unbound and poorly bound serum components were separated during washing with PBST (Phosphate buffered saline with 0.1% tween 20).The bound Copaxone was detected using biotin labeled Polyclonal Rabbit Anti Copaxone antibodies and streptavidin Alkaline phosphatase conjugate. Substrate was added to the wells and the blue colored signal obtained at 640 nm for the test samples is compared with the calibration curve prepared from concentration-response relationship of the calibrators to determine the unknown concentration of Copaxone in the serum samples.\nThree male Sprague Dawley rats were dosed with Copaxone at 20 mg per kg body weight with a dosing volume of […] at the dose concentration of 20mg/ml per day. The dosage was selected based on minimum feasible dose (based on dose volume of 1 ml per kg) for the given strength of 20 mg/ml. Each animal was weighed and dosed with Copaxone @ 20 mg/kg B.wt. Blood samples were collected in 10 μl of Protease inhibitor from each animal at the time point 5 min, 10 min, 15 min, 20 min, 30 min, 45 min, 1, 2, 3, 4, 6, 10 and 24 hours. The blood samples were stored on wet ice for serum separation. The serum was separated and stored at −80° C. till the shipment. The samples till 24 hours were shipped in Dry Ice […].",
  "key": {"[1]": {"settings": "Mean of three male Sprague Dawley rats"}, "[2]": {"settings": "individual male Sprague Dawley rat (Rat 1, 2, 3)"}},
  "note": "Where “and” joins values, the source holds several entries; their conditions need not be identical. Equal entries are not always repeated.",
  "data": [
    {"substance": "Glatiramer acetate [Copaxone]", "values": [
      {"measurement": "AUC0-inf", "setting": "[1]", "value": 25507, "unit": "ng·min/mL"},
      {"measurement": "AUC0-t", "setting": "[1]", "value": 25211.81, "unit": "ng·min/mL"},
      {"measurement": "AUC % Extrap_obs (Should be < 5%)", "setting": "[1]", "value": 1.24, "unit": "%"},
      {"measurement": "Cmax", "setting": "[1]", "value": 1824.12, "unit": "ng/mL"},
      {"measurement": "T1/2", "setting": "[1]", "value": 27.45, "unit": "min"},
      {"measurement": "Tmax", "setting": "[1]", "value": 11.67, "unit": "min"},
      {"measurement": "AUC0-inf", "setting": "[2]", "value": "25654.06 ng·min/mL and 15705.6 ng·min/mL and 35161.34 ng·min/mL"},
      {"measurement": "AUC0-t", "setting": "[2]", "value": "25491.53 ng·min/mL and 15411.63 ng·min/mL and 34732.28 ng·min/mL"},
      {"measurement": "AUC % Extrap_obs (Should be < 5%)", "setting": "[2]", "value": "0.63% and 1.87% and 1.22%"},
      {"measurement": "Cmax", "setting": "[2]", "value": "968.69 ng/mL and 510.79 ng/mL and 3992.88 ng/mL"},
      {"measurement": "Tmax", "setting": "[2]", "value": "15 min and 10 min"},
      {"measurement": "T1/2", "setting": "individual male Sprague Dawley rat (Rat 1, 2, 3), samples 5 min to 24 hours", "value": "31.18 min and 23.39 min and 27.79 min"}
    ]}
  ]
}
